Experimental data reported in US20060100431A1, “Biologically active compounds” (Amura Therapeutics Limited, priority 2002, published 2006).
Like-named read-outs stand apart in the source and are kept apart here.

How the values were obtained:
[1] = target: Wild-type cruzipain (Trypanosoma cruzi, UniProt P25779); assay: Trypanosoma cruzi cruzipain peptidase activity assay (Ki); type: biochemical
Procedure, shortened: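 Native cruzipain from T. cruzi Dm28 epimastigotes, 2.5 nM, in 100 mM sodium phosphate pH 6.75 with 1 mM EDTA and 10 mM L-cysteine, 25 °C, DMSO <1%. Rates taken from continuous fluorogenic substrate read; Ki by regression assuming reversible pure-competitive inhibition.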

[2] = target: T1, CPB2.8ΔCTE (Leishmania mexicana, UniProt P36400); assay: Leishmania mexicana cysteine protease B (CPB) peptidase activity assay (Ki); type: biochemical; settings: Ki, inhibitors of Leismania mexicana CPB protease
T1 construct: Wild-type recombinant CPB without the C-terminal extention (i.e. CPB2.8ΔCTE); Dr. Jeremy Mottram (Wellcome Centre for Molecular Parasitology, University of Glasgow)
Procedure, shortened: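 Recombinant CPB2.8ΔCTE (0.25 nM) was assayed in 100 mM sodium acetate pH 5.5 with 1 mM EDTA, 200 mM NaCl and 10 mM DTT at 25 °C, DMSO <1%, enzyme added to start. Rates were taken from continuous fluorescence slopes; apparent Ki was fitted assuming reversible, pure-competitive inhibition.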

[3] = read-out: Ki, inhibitors of cruzain and cruzipains

T1 sequence (P36400 126-343, stated change not applied): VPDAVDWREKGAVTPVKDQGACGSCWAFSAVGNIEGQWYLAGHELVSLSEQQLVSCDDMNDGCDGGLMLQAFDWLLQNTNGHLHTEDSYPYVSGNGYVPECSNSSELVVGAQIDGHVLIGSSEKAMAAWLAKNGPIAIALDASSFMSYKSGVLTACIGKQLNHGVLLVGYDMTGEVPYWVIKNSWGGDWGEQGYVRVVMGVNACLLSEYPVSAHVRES
Chain of Wild-type cruzipain (P25779 whole entry): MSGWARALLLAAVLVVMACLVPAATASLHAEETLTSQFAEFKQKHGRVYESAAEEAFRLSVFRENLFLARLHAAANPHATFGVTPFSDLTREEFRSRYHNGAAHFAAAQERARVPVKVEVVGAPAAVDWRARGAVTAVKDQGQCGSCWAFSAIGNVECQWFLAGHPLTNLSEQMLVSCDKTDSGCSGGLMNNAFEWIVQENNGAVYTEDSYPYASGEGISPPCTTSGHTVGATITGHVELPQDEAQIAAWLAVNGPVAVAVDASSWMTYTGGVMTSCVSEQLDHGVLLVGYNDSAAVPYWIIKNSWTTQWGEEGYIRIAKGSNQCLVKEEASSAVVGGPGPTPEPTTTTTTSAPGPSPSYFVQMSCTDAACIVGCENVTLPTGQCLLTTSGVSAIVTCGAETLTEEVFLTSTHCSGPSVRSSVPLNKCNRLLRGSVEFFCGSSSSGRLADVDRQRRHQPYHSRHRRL

| Structure (SMILES) | Ki [1, 3] [µM] | Ki [2] [µM] | Ki [1] [µM] |
| --- | --- | --- | --- |
| CC(C)C[C@H](NC(=O)c1ccc(N(C)C)cc1)C(=O)N1CC[C@@H]2[C@H]1C(=O)CN2C(=O)[C@H](CO)NC(=O)OCc1ccccc1 [Example 147, (3aS,6aR)-((1S)-2-{4-[(2S)-2-(4-Dimethylamino-benzoylamino)-4-methyl-pentanoyl]-3-oxo-hexahydro-pyrrolo[3,2-b]pyrrole-1-yl}-1-hydroxymethyl-2-oxo-ethyl)-carbamic acid benzyl ester] | < 5 | < 5 | – |
| CC(C)C[C@H](NC(=O)c1ccc(C(C)(C)C)cc1)C(=O)N1CC[C@@H]2[C@H]1C(=O)CN2C(=O)C1COc2ccccc2O1 (stereo partly drawn) [Example 29, (3aR,6aS)-4-tert-Butyl-N-{(1S)-1-[4-(2,3-dihydrobenzo[1,4]dioxine-2-carbonyl)-6-oxo-hexahydro-pyrrolo[3,2-b]pyrrole-1-carbonyl]-3-methyl-butyl}-benzamide] | < 5 | < 5 | – |
| CC(C)C[C@H](NC(=O)c1ccc(N(C)C)cc1)C(=O)N1CC[C@@H]2[C@H]1C(=O)CN2C(=O)Nc1ccccc1 [Example 167, (3aS,6aR)-4-[(2S)-2-(4-Dimethylamino-benzoylamino)-4-methyl-pentanoyl]-3-oxo-hexahydro-pyrrolo[3,2-b]pyrrole-1-carboxylic acid phenylamide] | < 5 | < 5 | – |
| CC(C)C[C@H](NC(=O)c1ccc(N(C)C)cc1)C(=O)N1CC[C@@H]2[C@H]1C(=O)CN2C(=O)c1ccccc1S(C)(=O)=O [Example 42, (3aR,6aS)-4-Dimethylamino-N-{(1S)-1-[4-(2-methanesulfonyl-benzoyl)-6-oxo-hexahydro-pyrrolo[3,2-b]pyrrole-1-carbonyl]-3-methyl-butyl}-benzamide] | < 5 | < 5 | – |
| CC(C)C[C@H](NC(=O)c1ccc(C(C)(C)C)cc1)C(=O)N1CC[C@@H]2[C@H]1C(=O)CN2C(=O)c1cccnc1 [Example 5, (3aR,6aS)-4-tert-Butyl-N-{(1S)-3-methyl-1-[6-oxo-4-(pyridine-3-carbonyl)-hexahydro-pyrrolo[3,2-b]pyrrole-1-carbonyl]-butyl}-benzamide] | < 5 | < 5 | – |
| CC(C)CC(=O)N1CC(=O)[C@@H]2[C@H]1CCN2C(=O)[C@H](CC(C)C)NC(=O)c1ccc(N(C)C)cc1 [Example 130, (3aR,6aS)-4-Dimethylamino-N-{(1S)-3-methyl-1-[4-(3-methyl-butyryl)-6-oxo-hexahydro-pyrrolo[3,2-b]pyrrole-1-carbonyl]-butyl}-benzamide] | < 5 | < 5 | – |
| CC(C)C[C@H](NC(=O)c1ccc(N(C)C)cc1)C(=O)N1CC[C@@H]2[C@H]1C(=O)CN2C(=O)c1ccccc1F [Example 62, (3aR,6aS)-4-Dimethylamino-N-{(1S)-1-[4-(2-fluoro-benzoyl)-6-oxo-hexahydro-pyrrolo[3,2-b]pyrrole-1-carbonyl]-3-methyl-butyl}-benzamide] | < 5 | < 5 | – |
| NCc1cccc(C(=O)N[C@@H](Cc2ccc(O)cc2)C(=O)N2CC[C@@H]3[C@H]2C(=O)CN3C(=O)c2ccccc2)c1 [Example 319, (3aR,6aS)-3-Aminomethyl-N-[(1S)-2-(4-benzoyl-6-oxo-hexahydro-pyrrolo[3,2-b]pyrrole-1-yl)-1-(4-hydroxy-benzyl)-2-oxo-ethyl]-benzamide] | < 5 | < 5 | – |
| CC(C)C[C@H](NC(=O)c1ccc(N(C)C)cc1)C(=O)N1CC[C@@H]2[C@H]1C(=O)CN2C(=O)[C@@H](N)[C@H](C)O [Example 208, (3aR,6aS)-N-{(1S)-1-[4-((2S,3S)-2-Amino-3-hydroxy-butyryl)-6-oxo-hexahydro-pyrrolo[3,2-b]pyrrole-1-carbonyl]-3-methyl-butyl}-4-dimethylamino-benzamide] | < 5 | < 5 | – |
| CC(C)C[C@H](NC(=O)c1ccc(N(C)C)cc1)C(=O)N1CC[C@@H]2[C@H]1C(=O)CN2C(=O)N1CCOCC1 [Example 142, (3aR,6aS)-4-Dimethylamino-N-{(1S)-3-methyl-1-[4-(morpholin-4-carbonyl)-6-oxo-hexahydro-pyrrolo[3,2-b]pyrrole-1-carbonyl]-butyl}-benzamide] | < 5 | < 5 | – |
| CC(=O)N[C@@H](CCC(C)C)C(=O)N1CC(=O)[C@@H]2[C@H]1CCN2C(=O)[C@H](CC(C)C)NC(=O)c1ccc(N(C)C)cc1 [Example 214, (3aR,6aS)-N-{(1S)-1-[4-((2S)-2-Acetylamino-5-methyl-hexanoyl)-6-oxo-hexahydro-pyrrolo[3,2-b]pyrrole-1-carbonyl]-3-methyl-butyl}-4-dimethylamino-benzamide] | < 5 | < 5 | – |
| CC(C)C[C@H](NC(=O)c1ccc(C(C)(C)C)cc1)C(=O)N1CC[C@@H]2[C@H]1C(=O)CN2C(=O)c1ccccc1 [Example 1, (3aR,6aS)-N-[(1S)-1-(4-Benzoyl-6-oxo-hexahydro-pyrrolo[3,2-b]pyrrole-1-carbonyl)-3-methyl-butyl]-4-tert-butylbenzamide] | – | < 5 | < 5 |
| CC[C@H](C)[C@H](N)C(=O)N1CC(=O)[C@@H]2[C@H]1CCN2C(=O)[C@H](CC(C)C)NC(=O)c1ccc(N(C)C)cc1 [Example 209, (3aR,6aS)-N-{(1S)-1-[4-((2S,3S)-2-Amino-3-methyl-pentanoyl)-6-oxo-hexahydro-pyrrolo[3,2-b]pyrrole-1-carbonyl]-3-methyl-butyl}-4-dimethylamino-benzamide] | < 5 | < 5 | – |
| CC(C)C[C@H](NC(=O)c1ccc(N(C)C)cc1)C(=O)N1CC[C@@H]2[C@H]1C(=O)CN2C(=O)c1cccnc1 [Example 21, (3aR,6aS)-4-Dimethylamino-N-{(1S)-3-methyl-1-[6-oxo-4-(pyridine-3-carbonyl)-hexahydro-pyrrolo[3,2-b]pyrrole-1-carbonyl]-butyl}-benzamide] | < 5 | < 5 | – |
| CC(C)CCC(=O)N1CC(=O)[C@@H]2[C@H]1CCN2C(=O)[C@H](CC(C)C)NC(=O)c1ccc(N(C)C)cc1 [Example 105, (3aR,6aS)-4-Dimethylamino-N-{(1S)-3-methyl-1-[4-(4-methyl-pentanoyl)-6-oxo-hexahydro-pyrrolo[3,2-b]pyrrole-1-carbonyl]-butyl}-benzamide] | < 5 | < 5 | – |
| CC(C)C[C@H](NC(=O)c1ccc(C(C)(C)C)cc1)C(=O)N1CC[C@@H]2[C@H]1C(=O)CN2C(=O)c1ccncc1 [Example 6, (3aR,6aS)-4-tert-Butyl-N-{(1S)-3-methyl-1-[6-oxo-4-(pyridine-4-carbonyl)-hexahydro-pyrrolo[3,2-b]pyrrole-1-carbonyl]-butyl}-benzamide] | < 5 | < 5 | – |
| CC(C)C[C@H](NC(=O)c1ccc(N(C)C)cc1)C(=O)N1CC[C@@H]2[C@H]1C(=O)CN2C(=O)c1ccc(OC(F)(F)F)cc1 [Example 71, (3aR,6aS)-4-Dimethylamino-N-{(1S)-3-methyl-1-[6-oxo-(4-trifluoromethoxy-benzoyl)-hexahydro-pyrrolo[3,2-b]pyrrole-1-carbonyl]-butyl}-benzamide] | < 5 | < 5 | – |
| CC(C)C[C@H](NC(=O)c1ccc(N(C)C)cc1)C(=O)N1CC[C@@H]2[C@H]1C(=O)CN2C(=O)N1CCCC1 [Example 235, (3aR,6aS)-4-Dimethylamino-N-{(1S)-3-methyl-1-[6-oxo-4-(pyrrolidine-1-carbonyl)-hexahydro-pyrrolo[3,2-b]pyrrole-1-carbonyl]-butyl}-benzamide] | < 5 | < 5 | – |
| CC(C)C[C@H](NC(=O)c1ccc(N(C)C)cc1)C(=O)N1CC[C@@H]2[C@H]1C(=O)CN2C(=O)c1ccc(Oc2ccccc2)cc1 [Example 56, (3aR,6aS)-4-Dimethylamino-N-{(1S)-3-methyl-1-[6-oxo-4-(4-phenoxy-benzoyl)-hexahydro-pyrrolo[3,2-b]pyrrole-1-carbonyl]-butyl}-benzamide] | < 5 | < 5 | – |
| CC(C)C[C@H](NC(=O)c1ccc(N(C)C)cc1)C(=O)N1CC[C@@H]2[C@H]1C(=O)CN2C(=O)c1cccc(OC(F)(F)F)c1 [Example 70, (3aR,6aS)-4-Dimethylamino-N-{(1S)-3-methyl-1-[6-oxo-4-(3-trifluoromethoxy-benzoyl)-hexahydro-pyrrolo[3,2-b]pyrrole-1-carbonyl]-butyl}-benzamide] | < 5 | < 5 | – |
| CC(C)C[C@H](NC(=O)c1ccc(C(C)(C)C)cc1)C(=O)N1CC[C@@H]2[C@H]1C(=O)CN2C(=O)Nc1ccccc1 [Example 190, (3aS,6aR)-4-(2S-2-(4-tert-Butyl-benzoylamino)-4-methyl-pentanoyl]-3-oxo-hexahydro-pyrrolo[3,2-b]pyrrole-1-carboxylic acid phenylamide] | < 5 | < 5 | – |
| CC(C)C[C@H](NC(=O)c1ccc(N(C)C)cc1)C(=O)N1CC[C@@H]2[C@H]1C(=O)CN2C(=O)c1ccoc1 [Example 97, (3aR,6aS)-4-Dimethylamino-N-{(1S)-1-[4-(furan-3-carbonyl)-6-oxo-hexahydro-pyrrolo[3,2-b]pyrrole-1-carbonyl]-3-methyl-butyl}-benzamide] | < 5 | < 5 | – |
| CC(C)C[C@H](NC(=O)c1ccc(C(C)(C)C)cc1)C(=O)N1CC[C@@H]2[C@H]1C(=O)CN2C(=O)c1ccc2ncsc2c1 [Example 32, (3aR,6aS)-N-{(1S)-1-[4-(Benzothiazole-6-carbonyl)-6-oxo-hexahydro-pyrrolo[3,2-b]pyrrole-1-carbonyl]-3-methyl-butyl}-4-tert-butyl-benzamide] | < 5 | < 5 | – |
